In brackets after ≈: the same amount, converted by molar mass. Read-outs that look alike come from different tables or passages of the source.
What was measured:
[1] = test system: Mtb BioA underexpression strain (BioA-UE); assay: microbe, parasite or virus in culture; type: cell-based, Mycobacterium tuberculosis
[2] = test system: Mtb H37Rv; assay: microbe, parasite or virus in culture; type: cell-based, Mycobacterium tuberculosis; conditions: for MIC50 WT+biotin: Mtb H37Rv with 1 μM supplemental biotin; for MIC: Mycobacterium tuberculosis, H37RV
[3] = test system: Mtb H37Rv; conditions: cited from earlier work
[4] = MIC that results in 50% inhibition

Compound: CC(=O)c1ccc(N2CCN(C(=O)c3ccc4c(c3)OCO4)CC2)cc1 [Compound 6, 1-(4-(4-(Benzo[d][1,3]dioxole-5-carbonyl)piperazin-1-yl)phenyl)-ethanone]
- MIC ([1]; Mycobacterium tuberculosis, read-out: MIC that results in 90% inhibition, BioA-UE): 1.7 µM (≈ 0.599 µg/mL)
- MIC50 WT+biotin [2, 4]: >50 µM
- MIC ([2]; read-out: MIC that results in 90% inhibition, WT+biotin): > 50 µM
- MIC ([2]; read-out: MIC that results in 90% inhibition, WT-biotin): 23.4 µM (≈ 8.25 µg/mL)
- activity against whole-cell Mtb in biotin-supplemented medium [3]: no observed activity

Compound: CC(=O)c1ccc(N2CCN(C(=O)c3ccc(Cl)c(Cl)c3)CC2)cc1 [Compound 9, 1-(4-(4-(3,4-Dichlorobenzoyl)piperazin-1-yl)phenyl)ethanone]
- fold loss in potency against WT Mtb ([2]; biotin-free medium, relative to 6): 2 fold

Compound: CC(=O)c1cccc(N2CCN(C(=O)c3cccc(Cl)c3)CC2)c1 [Compound 30, 1-(3-(4-(3-Chlorobenzoyl)piperazin-1-yl)phenyl)ethanone]
- fold loss in activity compared to para-acetyl 12 [2]: 10–50 fold

Compound: O=C1CCc2cc(N3CCN(C(=O)c4ccc5c(c4)OCO5)CC3)ccc21 [Compound 36, 5-(4-(Benzo[d][1,3]dioxole-5-carbonyl)piperazin-1-yl)-2,3-dihydro-1H-inden-1-one]
- MIC ([2]; read-out: minimum inhibitory concentration (MIC) against WT Mtb): 1.7 µM (≈ 0.619 µg/mL)

Compound: CC(=O)c1ccc(-c2cn(Cc3cccc(Cl)c3)nn2)cc1 [Compound 37, 1-(4-(1-(3-Chlorobenzyl)-1H-1,2,3-triazol-4-yl)phenyl)ethanone]
- antitubercular activity (in words) [2]: inactive

Compound: CC(=O)c1ccc(-c2cn(Cc3cccc(Cl)c3)nn2)s1 [Compound 38, 1-(5-(1-(3-Chlorobenzyl)-1H-1,2,3-triazol-4-yl)thiophen-2-yl)-ethanone]
- antitubercular activity (in words) [2]: inactive

Compound: CC(=O)c1ccc(N2CCC(C(=O)c3ccc4c(c3)OCO4)CC2)cc1 [Compound 40, 1-(4-(4-(Benzo[d][1,3]dioxole-5-carbonyl)piperidin-1-yl)phenyl)-ethanone]
- antitubercular activity (in words) [2]: completely inactive

Compound: (3-Chlorophenyl)(4-(5-methoxypyridin-2-yl)piperazin-1-yl)-methanone [Compound 22]
- MIC50 BioA-UE ([1]; MIC that results in 50% inhibition, […]): 24.4 µM
- MIC50 WT+biotin [2, 4]: >50 µM
- MIC50 WT-biotin ([2]; MIC that results in 50% inhibition, Mtb H37Rv without supplemental biotin): 22.0 µM
